The nature of data set [1]: Determination of Compound 1 in mice brain by LC/MS/MS. In kind it is in vivo. Conditions: male CD-1 mice fed 1 mg/g in 0.5% methylcellulose, brain removed after 15 minute; individual brains 1-3. The procedure: The concentration of compound 1 in brain samples was analyzed by LC/MS/MS spectrometer. Experiments were performed on male CD-1 derived mice weighing 24±2 g (Biolasco Taiwan). The CD-1 mice were fed with 1 mg/g Compound 1 in 0.5% methylcellulose (concentration is 2 mg/mL). The brains of the CD-1 mice were removed after 15 minute and extracted with CH3CN and then centrifuged to prepare supernatant that was analyzed by LC/MS/MS.

Another data set concerns SK-N-MC cells. Description: MTT survival assay on SK-N-MC brain cancer cells. In kind it is cell-based. The note with it: Homo sapiens, 48 hours. The method, then:
The NCI anti-cancer drug screen model was adopted to test anti-cancer effect of the exemplary compounds from Example 1. The isolated compound 1 from Example 1 was added into the culture media of brain-cancer cells, SK-N-MC, to test for tumor cell survival by MTT assay.
(§1) MTT assay is commonly used to determine cell proliferation, percent of viable cells, and cytotoxicity. MTT (3-[4,5-dimethylthiazol-2-yl]2,5-diphenyltetrazolium bromide) is a yellow dye, which can be absorbed by the living cells and be reduced to purplish blue formazan crystals by succinate tetrazolium reductase in mitochondria. Formazan formation can therefore be used to assess and determine the survival rate of cells.
SK-N-MC cells were suspended and cultured in 10% fetal bovine serum (Life Technologies Inc.) culture medium containing 1% penicillin and 1% streptomycin. The cells were incubated under 5% CO2, 37° C. for 24 hours. After cell proliferation, the cells were washed once with PBS, treated with the trypsin-EDTA, and then centrifuged at 1,200 rpm for 5 minutes to separate cells from supernatant. The cells were re-suspended in fresh culture medium (10 mL) and placed in 96 well plates.
(§2) To each of the 96 well plates containing SK-N-MC, 0.003, 0.01, 0.03, 0.1, and 0.3 μg/ml of compound 1 were add. The 96 well plates were incubated at 37° C., 5% CO2 for 48 hours. Subsequently, in the dark environment to each well of the plates were added 2.5 mg/ml of MTT. The reaction was terminated by addition of 100 μl of lysis buffer after 4 hours. The survival rate of cells was calculated based on the measurement of absorption at the 570 nm wavelength by enzyme immunoassay analyzer. The half maximal inhibitory concentration (IC50) values of compound 1 on SK-N-MC was 0.05 μg/mL. Similarly, another exemplary cancer cell lines, U373MG, were used.

The subject of another data set is U373MG. Put plainly: MTT survival assay on U373MG cancer cells. In kind it is cell-based. The note with it: Homo sapiens, U373 MG, read-out: half maximal inhibitory concentration (IC50).
From the text: as §1, §2

≈ marks a conversion by molar mass, not a printed value. Where “and” joins values, the source holds several entries; their conditions need not be identical. Identical values can stand only once.

As for `COC1=C(OC)C(O)C(C/C=C(\C)CC/C=C(\C)CCC=C(C)C)C(C)C1=O` (centres unmarked) [Compound 1, 4-hydroxy-2,3-dimethoxy-6-methyl-5-(3,7,11-trimethyldodeca-2,6,10-trienyl)cyclohex-2-enone], the Brain concentration in data set [1] is 30.13 µg/g and 7.59 µg/g and 24.28 µg/g. Also, in the data set on SK-N-MC cells (0.003 μg/ml, read-out: Cell viability rate mean), the viability at 0.003 µg/mL came to 86.3%. Moreover, in the data set with SK-N-MC cells (0.01 μg/ml, read-out: Cell viability rate mean), the viability at 0.01 µg/mL came out at 76.6%. The viability at 0.03 µg/mL in the data set with SK-N-MC cells (0.03 μg/ml, read-out: Cell viability rate mean) stood at 63.2%. In addition, the viability at 0.1 µg/mL in the data set on SK-N-MC cells (0.1 μg/ml, read-out: Cell viability rate mean) was found to be 32.9%. In addition, in the data set on SK-N-MC cells (0.3 μg/ml, read-out: Cell viability rate mean), the viability at 0.3 µg/mL amounted to 23%. The IC50 in the data set on SK-N-MC cells (read-out: half maximal inhibitory concentration (IC50)) stood at 0.05 µg/mL (≈ 0.128 µM); with U373MG, 5.88 µg/mL (≈ 15.1 µM).

These data come from patent US20130158113A1, “METHODS AND COMPOSITIONS FOR TREATING BRAIN CANCER” (Golden Biotechnology Corporation, priority 2011, published 2013).
